Patent US20230085307A1, “PYRIDAZINONE COMPOUND AND HERBICIDE” (NISSAN CHEMICAL CORPORATION, priority 2019, published 2023)

Tests used:
[1] = test system: redroot pigweed; assay: Test Example 5: herbicidal effect by foliage application, plastic box (Table 20, symbol N); format: in vivo, redroot pigweed (Amaranthus retroflexus); details: foliage application, AAH 320 g/ha, evaluated three weeks after application
Procedure, shortened: (§1)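 Foliar spray test: emulsion formulation diluted in water to a set application rate, sprayed onto 14-day-old plants raised in diluvial soil at 25° C to 30° C under glass. Both herbicidal effect and crop effect rated visually three weeks later.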

[2] = test system: barnyard grass; assay: Test Example 5: herbicidal effect by foliage application, plastic box (Table 20, symbol H); format: in vivo, barnyard grass (Echinochloa crus-galli); details: foliage application, AAH 320 g/ha, evaluated three weeks after application
Procedure, shortened: as §1

[3] = test system: Italian ryegrass; assay: Test Example 5: herbicidal effect by foliage application, plastic box (Table 20, symbol K); format: in vivo, Italian ryegrass (Lolium multiflorum); details: foliage application, AAH 320 g/ha, evaluated three weeks after application
Procedure, shortened: as §1

[4] = test system: Japanese bulrush; assay: Test Example 1: herbicidal activity, application before weed generation under submerged conditions (Table 16, symbol B); format: in vivo, Japanese bulrush (Schoenoplectus juncoides); details: amount of applied herbicide 320 g/ha
Procedure, shortened: (§2)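 Alluvial soil was flooded to 4 cm depth, weed seeds were sown mixed and 2.5-leaf rice seedlings were transplanted. On sowing day, the compound's emulsion, diluted in water to a set dose, was applied to the water surface. Plants grew at 25–30 °C and were scored 0–5 after three weeks.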

[5] = test system: lambsquarters; assay: Test Example 5: herbicidal effect by foliage application, plastic box (Table 20, symbol O); format: in vivo, lambsquarters (Chenopodium album); details: foliage application, AAH 320 g/ha, evaluated three weeks after application
Procedure, shortened: as §1

[6] = test system: persian speedwell; assay: Test Example 5: herbicidal effect by foliage application, plastic box (Table 20, symbol R); format: in vivo, Persian speedwell (Veronica persica); details: foliage application, AAH 320 g/ha, evaluated three weeks after application
Procedure, shortened: as §1

[7] = test system: Italian ryegrass; assay: Test Example 4: herbicidal effect by soil treatment (Table 19, symbol K); format: in vivo, Italian ryegrass (Lolium multiflorum); details: amount of applied herbicide 320 g/ha
Procedure, shortened: (§3)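 Herbicidal effect was rated 3 weeks after treatment, using the scoring criteria of an earlier test. The compound, formulated as an emulsion and diluted in water to a set herbicide amount, had been sprayed uniformly on soil over freshly sown seeds. Growth took place in a greenhouse at 25° C. to 30° C.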

[8] = test system: late watergrass; assay: Test Example 1: herbicidal activity, application before weed generation under submerged conditions (Table 16, symbol A); format: in vivo, late watergrass (Echinochloa oryzicola); details: amount of applied herbicide 320 g/ha
Procedure, shortened: as §2

[9] = test system: southern crabgrass; assay: Test Example 4: herbicidal effect by soil treatment (Table 19, symbol F); format: in vivo, southern crabgrass (Digitaria ciliaris); details: amount of applied herbicide 320 g/ha
Procedure, shortened: as §3

[10] = test system: rice flat sedge; assay: Test Example 3: herbicidal effect by foliage application, Wagner pot (Table 18, symbol E); format: in vivo, rice flat sedge (Cyperus iria); details: amount of applied herbicide 320 g/ha
Procedure, shortened: (§4)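 Plants were sown in alluvial soil held under 0.1–0.5 cm standing water and grown 14 days in a greenhouse at 25–30 °C. An emulsifiable formulation, water-diluted to the set dose, was then sprayed onto the foliage, and effects were scored three weeks later using previously defined criteria.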

[11] = test system: lambsquarters; assay: Test Example 4: herbicidal effect by soil treatment (Table 19, symbol O); format: in vivo, lambsquarters (Chenopodium album); details: amount of applied herbicide 320 g/ha
Procedure, shortened: as §3

[12] = test system: southern crabgrass; assay: Test Example 5: herbicidal effect by foliage application, plastic box (Table 20, symbol F); format: in vivo, southern crabgrass (Digitaria ciliaris); details: foliage application, AAH 320 g/ha, evaluated three weeks after application
Procedure, shortened: as §1

[13] = test system: windgrass; assay: Test Example 4: herbicidal effect by soil treatment (Table 19, symbol L); format: in vivo, windgrass (Apera spica-venti); details: amount of applied herbicide 320 g/ha
Procedure, shortened: as §3

[14] = test system: chickweed; assay: Test Example 5: herbicidal effect by foliage application, plastic box (Table 20, symbol P); format: in vivo, common chickweed (Stellaria media); details: foliage application, AAH 320 g/ha, evaluated three weeks after application
Procedure, shortened: as §1

[15] = test system: persian speedwell; assay: Test Example 4: herbicidal effect by soil treatment (Table 19, symbol R); format: in vivo, Persian speedwell (Veronica persica); details: amount of applied herbicide 320 g/ha
Procedure, shortened: as §3

[16] = test system: blackgrass; assay: Test Example 4: herbicidal effect by soil treatment (Table 19, symbol J); format: in vivo, blackgrass (Alopecurus myosuroides); details: amount of applied herbicide 320 g/ha
Procedure, shortened: as §3

[17] = test system: chickweed; assay: Test Example 4: herbicidal effect by soil treatment (Table 19, symbol P); format: in vivo, common chickweed (Stellaria media); details: amount of applied herbicide 320 g/ha
Procedure, shortened: as §3

[18] = test system: green foxtail; assay: Test Example 5: herbicidal effect by foliage application, plastic box (Table 20, symbol G); format: in vivo, green foxtail (Setaria viridis); details: foliage application, AAH 320 g/ha, evaluated three weeks after application
Procedure, shortened: as §1

[19] = test system: Chinese sprangletop; assay: Test Example 3: herbicidal effect by foliage application, Wagner pot (Table 18, symbol D); format: in vivo, chinese sprangletop (Leptochloa chinensis); details: amount of applied herbicide 320 g/ha
Procedure, shortened: as §4

[20] = test system: oval-leafed pondweed; assay: Test Example 1: herbicidal activity, application before weed generation under submerged conditions (Table 16, symbol C); format: in vivo, oval-leafed pondweed (Monochoria vaginalis); details: amount of applied herbicide 320 g/ha
Procedure, shortened: as §2

[21] = test system: windgrass; assay: Test Example 5: herbicidal effect by foliage application, plastic box (Table 20, symbol L); format: in vivo, windgrass (Apera spica-venti); details: foliage application, AAH 320 g/ha, evaluated three weeks after application
Procedure, shortened: as §1

[22] = test system: barnyard grass; assay: Test Example 4: herbicidal effect by soil treatment (Table 19, symbol H); format: in vivo, barnyard grass (Echinochloa crus-galli); details: amount of applied herbicide 320 g/ha
Procedure, shortened: as §3

[23] = test system: velvetleaf; assay: Test Example 5: herbicidal effect by foliage application, plastic box (Table 20, symbol M); format: in vivo, velvetleaf (Abutilon theophrasti); details: foliage application, AAH 320 g/ha, evaluated three weeks after application
Procedure, shortened: as §1

[24] = test system: velvetleaf; assay: Test Example 4: herbicidal effect by soil treatment (Table 19, symbol M); format: in vivo, velvetleaf (Abutilon theophrasti); details: amount of applied herbicide 320 g/ha
Procedure, shortened: as §3

[25] = test system: false cleavers; assay: Test Example 4: herbicidal effect by soil treatment (Table 19, symbol Q); format: in vivo, false cleavers (Galium spurium); details: amount of applied herbicide 320 g/ha
Procedure, shortened: as §3

[26] = test system: redroot pigweed; assay: Test Example 4: herbicidal effect by soil treatment (Table 19, symbol N); format: in vivo, redroot pigweed (Amaranthus retroflexus); details: amount of applied herbicide 320 g/ha
Procedure, shortened: as §3

[27] = test system: wild oat; assay: Test Example 5: herbicidal effect by foliage application, plastic box (Table 20, symbol I); format: in vivo, wild oat (Avena fatua); details: foliage application, AAH 320 g/ha, evaluated three weeks after application
Procedure, shortened: as §1

[28] = test system: green foxtail; assay: Test Example 4: herbicidal effect by soil treatment (Table 19, symbol G); format: in vivo, green foxtail (Setaria viridis); details: amount of applied herbicide 320 g/ha
Procedure, shortened: as §3

[29] = test system: wild oat; assay: Test Example 4: herbicidal effect by soil treatment (Table 19, symbol I); format: in vivo, wild oat (Avena fatua); details: amount of applied herbicide 320 g/ha
Procedure, shortened: as §3

[30] = test system: blackgrass; assay: Test Example 5: herbicidal effect by foliage application, plastic box (Table 20, symbol J); format: in vivo, blackgrass (Alopecurus myosuroides); details: foliage application, AAH 320 g/ha, evaluated three weeks after application
Procedure, shortened: as §1

CCn1nc(C)c(O)c(-c2c(-c3ccc(F)cc3)sc3ccc(F)cc23)c1=O [2-398]
N: redroot pigweed, herbicidal effect (criteria 0-5) [1]: 5 (Herbicidal rate of 90% or more (almost completely withered))
H: barnyard grass, herbicidal effect (criteria 0-5) [2]: 5 (Herbicidal rate of 90% or more (almost completely withered))
K: Italian ryegrass, herbicidal effect (criteria 0-5) [3]: 4 (Herbicidal rate of 70% or more and less than 90%)
Herbicidal effect, B: Japanese bulrush [4]: 3 (Herbicidal rate of 40% or more and less than 70%)
O: lambsquarters, herbicidal effect (criteria 0-5) [5]: 4 (Herbicidal rate of 70% or more and less than 90%)
R: persian speedwell, herbicidal effect (criteria 0-5) [6]: 5 (Herbicidal rate of 90% or more (almost completely withered))
herbicidal effect, K: Italian ryegrass [7]: 4 (Herbicidal rate of 70% or more and less than 90%)
Herbicidal effect, A: late watergrass [8]: 3 (Herbicidal rate of 40% or more and less than 70%)
herbicidal effect, F: southern crabgrass [9]: 3 (Herbicidal rate of 40% or more and less than 70%)
herbicidal effect on E: rice flat sedge [10]: 3 (Herbicidal rate of 40% or more and less than 70%)
herbicidal effect, O: lambsquarters [11]: 3 (Herbicidal rate of 40% or more and less than 70%)
F: southern crabgrass, herbicidal effect (criteria 0-5) [12]: 4 (Herbicidal rate of 70% or more and less than 90%)
herbicidal effect, L: windgrass [13]: 0 (Herbicidal rate of 5% or less (almost no effect))
P: chickweed, herbicidal effect (criteria 0-5) [14]: 5 (Herbicidal rate of 90% or more (almost completely withered))
herbicidal effect, R: persian speedwell [15]: 1 (Herbicidal rate of 5% or more and less than 20%)
herbicidal effect, J: blackgrass [16]: 0 (Herbicidal rate of 5% or less (almost no effect))
herbicidal effect, P: chickweed [17]: 0 (Herbicidal rate of 5% or less (almost no effect))
G: green foxtail, herbicidal effect (criteria 0-5) [18]: 4 (Herbicidal rate of 70% or more and less than 90%)
herbicidal effect on D: Chinese sprangletop [19]: 0 (Herbicidal rate of 5% or less (almost no effect))
Herbicidal effect, C: oval-leafed pondweed [20]: 0 (Herbicidal rate of 5% or less (almost no effect))
L: windgrass, herbicidal effect (criteria 0-5) [21]: 0 (Herbicidal rate of 5% or less (almost no effect))
herbicidal effect, H: barnyard grass [22]: 2 (Herbicidal rate of 20% or more and less than 40%)
M: velvetleaf, herbicidal effect (criteria 0-5) [23]: 5 (Herbicidal rate of 90% or more (almost completely withered))
herbicidal effect, M: velvetleaf [24]: 1 (Herbicidal rate of 5% or more and less than 20%)
herbicidal effect, Q: false cleavers [25]: 0 (Herbicidal rate of 5% or less (almost no effect))
herbicidal effect, N: redroot pigweed [26]: 4 (Herbicidal rate of 70% or more and less than 90%)
I: wild oat, herbicidal effect (criteria 0-5) [27]: 0 (Herbicidal rate of 5% or less (almost no effect))
herbicidal effect, G: green foxtail [28]: 3 (Herbicidal rate of 40% or more and less than 70%)
herbicidal effect, I: wild oat [29]: 0 (Herbicidal rate of 5% or less (almost no effect))
J: blackgrass, herbicidal effect (criteria 0-5) [30]: 0 (Herbicidal rate of 5% or less (almost no effect))
